O=c1[nH]c2ccccc2c(=O)o1
solubility (mole fraction)
Conditions	288.15 K	293.15 K	298.15 K	303.15 K	308.15 K	313.15 K	318.15 K	323.15 K	328.15 K
in 1,4-dioxane	0.00839	0.00944	0.0107	0.0119	0.0133	0.0146	–	0.0179	0.0198
in 2-butanone	0.00741	0.00805	0.00877	0.00964	0.0107	0.0117	0.0129	0.014	0.0153
in acetone	0.00794	0.00873	0.00965	0.0109	0.0122	0.0135	0.0149	0.0165	0.0184
in acetonitrile	0.003	0.0033	0.00374	0.0043	0.00485	0.00553	0.00624	0.00712	0.00797
in ethanol	0.00134	0.0015	0.00175	0.00201	0.00239	0.00277	0.00328	0.00381	0.00439
in ethyl acetate	0.0032	0.00352	0.00389	0.00434	0.00482	0.00533	0.00582	0.00636	0.00694
in isopropanol	0.00104	0.00121	0.00144	0.00176	0.00216	0.00265	0.00316	0.0038	0.00457
in isopropyl acetate	0.00185	0.00206	0.00234	0.00256	0.00291	0.00325	0.0036	0.00396	0.00434
in methanol	0.00149	0.00173	0.00204	0.00243	0.00295	0.00354	0.00425	0.00507	0.00606
in methyl acetate	0.00415	0.00464	0.00517	0.00573	0.00634	0.00699	0.00768	0.00844	0.00937
in n-propanol	0.00116	0.00133	0.00152	0.00181	0.00208	0.0025	0.00291	0.00341	0.00394
in n-propyl acetate	0.00229	0.00255	0.00285	0.00318	0.00351	0.00394	0.00434	0.00477	0.00534

Source: BigSolDB 2.1
